Measurements as given in patent publication US9113629B2, “4-amino-6-(4-substituted-phenyl)-picolinates and 6-amino-2-(4-substituted-phenyl)-pyrimidine-4-carboxylates and their use as herbicides” (DOW AGROSCIENCES LLC, priority 2013, dated 2015).
Where two headings read alike, the source gives them in different places.

Assays:
[1] = tested on: Key Broadleaf Weed and Crop Species; test: Post-emergent Test II herbicidal activity (Table 5); format: in vivo; conditions: post-emergence, 336 h, post-emergent, 14 days after application; for pest or weed control at 70 g/ha: 70 g ai/ha; for pest or weed control at 140 g/ha: 140 g ai/ha
Method in brief: (§1)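 Foliar application at 187 L/ha to greenhouse-grown seedlings (first or second true leaf); subirrigation thereafter. Visual 0–100% injury at 14 d relative to untreated plants.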

[2] = tested on: Key Grass and Sedge Weeds as well as Grass Crops; test: Post-emergent Test II herbicidal activity (Table 6); format: in vivo; conditions: post-emergence, 336 h; for pest or weed control at 70 g/ha: application rate 70 g ai/ha; for pest or weed control at 140 g/ha: application rate 140 g ai/ha
Method in brief: as §1

[3] = ABUTH: velvetleaf (Abutilon theophrasti), read-out: Visual Growth Reduction (%) 14 Days After Application ABUTH
[4] = AMARE: redroot pigweed (Amaranthus retroflexus), read-out: Visual Growth Reduction (%) 14 Days After Application AMARE
[5] = BRSNN: oilseed-rape, canola (Brassica napus), read-out: Visual Growth Reduction (%) 14 Days After Application BRSNN
[6] = CHEAL: lambsquarters (Chenopodium album), read-out: Visual Growth Reduction (%) 14 Days After Application CHEAL
[7] = EPHHL: wild poinsettia (Euphorbia heterophylla), read-out: Visual Growth Reduction (%) 14 Days After Application EPHHL
[8] = HELAN: sunflower (Helianthus annuus), read-out: Visual Growth Reduction (%) 14 Days After Application HELAN
[9] = VIOTR: wild pansy (Viola tricolor), read-out: Visual Growth Reduction (%) 14 Days After Application VIOTR
[10] = Triticum aestivum, TRZSS (wheat), read-out: Visual Growth Reduction (%) 14 Days After Application, TRZSS
[11] = CYPES: yellow nutsedge (Cyperus esculentus), read-out: Visual Growth Reduction (%) 14 Days After Application, CYPES
[12] = DIGSA: crabgrass (Digitaria sanguinalis), read-out: Visual Growth Reduction (%) 14 Days After Application, DIGSA
[13] = ECHCG: barnyardgrass (Echinochloa crus-galli), read-out: Visual Growth Reduction (%) 14 Days After Application, ECHCG
[14] = ORYSA: rice (Oryza sativa), read-out: Visual Growth Reduction (%) 14 Days After Application, ORYSA
[15] = SETFA: giant foxtail (Setaria faberi), read-out: Visual Growth Reduction (%) 14 Days After Application, SETFA
[16] = SORVU: grain sorghum (Sorghum vulgare), read-out: Visual Growth Reduction (%) 14 Days After Application, SORVU
[17] = ZEAMX: maize, corn (Zea mays), read-out: Visual Growth Reduction (%) 14 Days After Application, ZEAMX

COC(=O)c1nc(-c2ccc(C(N)=O)cc2)c(F)c(N)c1Cl [Compound 192]
0 to 29%: pest or weed control at 70 g/ha [1, 3] | pest or weed control at 140 g/ha [1, 3] | pest or weed control at 70 g/ha [1, 4] | pest or weed control at 140 g/ha [1, 4] | pest or weed control at 70 g/ha [1, 5] | pest or weed control at 140 g/ha [1, 5] | pest or weed control at 70 g/ha [1, 6] | pest or weed control at 140 g/ha [1, 6] | pest or weed control at 70 g/ha [1, 7] | pest or weed control at 140 g/ha [1, 7] | pest or weed control at 70 g/ha [1, 8] | pest or weed control at 140 g/ha [1, 8] | pest or weed control at 70 g/ha [1, 9] | pest or weed control at 140 g/ha [1, 9] | pest or weed control at 70 g/ha [2, 10] | pest or weed control at 140 g/ha [2, 10] | pest or weed control at 70 g/ha [2, 11] | pest or weed control at 140 g/ha [2, 11] | pest or weed control at 70 g/ha [2, 12] | pest or weed control at 140 g/ha [2, 12] | pest or weed control at 70 g/ha [2, 13] | pest or weed control at 140 g/ha [2, 13] | pest or weed control at 70 g/ha [2, 14] | pest or weed control at 140 g/ha [2, 14] | pest or weed control at 70 g/ha [2, 15] | pest or weed control at 140 g/ha [2, 15] | pest or weed control at 70 g/ha [2, 16] | pest or weed control at 140 g/ha [2, 16] | pest or weed control at 70 g/ha [2, 17] | pest or weed control at 140 g/ha [2, 17]
